Read-outs that look alike come from different tables or passages of the source. Each block holds one molecule with its values, some of them ahead of it. Ends that are not written are not given here. Peptide text beside a SMILES is read from it. * marks the point of attachment. PEG8 = NCCOCCOCCOCCOCCOCCOCCOCCOCCC(=O)O; Palmitoyl = CCCCCCCCCCCCCCCC(=O)*
Assays:
CCK2R [1] = target: T1, CCK2R (Homo sapiens, UniProt P32239); assay: SRE-luciferase reporter agonist assay in HEK293 cells transfected with CCK2R; details: for CCK2R mediated signaling (agonist activity, in words): HEK293, SRE-Luc, relative to 10 µM s-CCK4-NH2, MTL coexpressed 24 hours, peptides 4 hours
T1 sequence (P32239 1-447): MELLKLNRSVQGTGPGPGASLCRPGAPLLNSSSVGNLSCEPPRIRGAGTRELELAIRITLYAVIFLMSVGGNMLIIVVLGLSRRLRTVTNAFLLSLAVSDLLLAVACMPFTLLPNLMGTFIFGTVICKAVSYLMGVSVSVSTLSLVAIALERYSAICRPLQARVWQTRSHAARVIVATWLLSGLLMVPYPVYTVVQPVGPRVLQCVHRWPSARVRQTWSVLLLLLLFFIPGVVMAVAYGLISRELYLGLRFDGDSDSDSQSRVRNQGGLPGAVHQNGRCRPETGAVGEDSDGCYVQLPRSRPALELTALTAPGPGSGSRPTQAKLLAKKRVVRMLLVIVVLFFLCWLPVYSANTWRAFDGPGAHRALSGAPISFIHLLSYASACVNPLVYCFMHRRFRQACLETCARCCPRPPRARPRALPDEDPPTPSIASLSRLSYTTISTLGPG
Protocol: (§1) Human embryonic kidney cells (HEK293) were maintained at 37°C in a humidified 5% CO2 atmosphere and cultured with Dulbecco’s modified Eagle’s medium (Invitrogen, Chicago, IL) containing 10% fetal bovine serum, 100 U/mL penicillin, and 100 µg/mL streptomycin. Cells were seeded into 96-well plates and grown to ∼80% confluence. Cells were transfected for 24 hours using polyethylenimine (Sigma, Atlanta, GA) in serum-free medium [17] with cDNAs encoding, a) tethered ligand (where noted), b) 3 ng of indicated receptor, c) 25 ng of a 5X-SRE-Luc-pest (pGL4.33), a luciferase reporter construct under the control of a serum response element (Promega, Madison, WI), and d) 10 ng of β-galactosidase to control for transfection efficiency.
The CCK2 receptor was cloned as previously reported [18]; the CCK1R cDNA was PCR amplified based on a published sequence [19]. Each receptor cDNA encoding the human sequence was subcloned into pcDNA1.1. […] The nucleotide sequences of all receptor and tethered ligand coding regions were confirmed by automated DNA sequencing and analyzed using Vector NTI software (Invitrogen, Chicago, IL). The expression of membrane tethered Substance P, CCK4, and CCK4-Gly was assessed by ELISA using an antibody directed to the myc epitope tag within the MTL cDNA construct [8].
(§2) Tethered ligand induced signaling was assessed in HEK293 cells 24 hours after transfection. For soluble and lipidated peptides, 20 hours following transfection, cells were stimulated in serum-free medium for an additional 4 hours. […] With tethered ligands, antagonists were added 4 hours after transfection; activity was assessed following an additional 20 hour incubation. Quantification of luciferase and β-galactosidase activities were performed as previously described [6]. Data were analyzed by nonlinear curve fitting using Graph Pad Prism 5.0 software.
HEK293 cells were transiently cotransfected with cDNAs encoding: the designated CCK receptor subtype, a 5X-SRE-Luc-pest reporter construct (pGL4.33), tethered ligand (as indicated) and a β-galactosidase gene to control for transfection efficiency. Tethered ligand activity was measured 24 hours following transfection. To assess activity of soluble and lipidated CCK4-Gly, cells were stimulated for an additional 4 hours with ligand. […] Data represent the mean ± SEM from 3 independent experiments, each performed in triplicate.

NK1R [2] = target: T2, NK1R (Homo sapiens, UniProt P25103); assay: cell-based
Protocol: as §1
(§3) The expression of membrane tethered Substance P, CCK4, and CCK4-Gly was assessed by ELISA using an antibody directed to the myc epitope tag within the MTL cDNA construct [8].
as §2
(§4) HEK293 cells were transiently cotransfected for 24 hours with cDNAs encoding: the designated NK receptor subtype, a 5X-SRE-Luc-pest reporter construct (pGL4.33), tethered ligand (for MTL assays, left panels), and a β-galactosidase gene to control for transfection variability. For assessment of SMAL induced signaling, cells were stimulated with ligand for an additional 4 hours. […] Data represent the mean ± SEM from 3 independent experiments, each performed in triplicate.

NK1R [3] = target: T2, NK1R
Protocol: as §1, §3, §2, §4

CCK1R = target: T3, CCK1R (Homo sapiens, UniProt P32238); assay: SRE-luciferase reporter agonist assay in HEK293 cells transfected with CCK1R; details: HEK293, SRE-Luc; relative to 10 µM s-CCK8-NH2; MTL coexpressed 24 hours, peptides 4 hours
T3 sequence (P32238 1-428): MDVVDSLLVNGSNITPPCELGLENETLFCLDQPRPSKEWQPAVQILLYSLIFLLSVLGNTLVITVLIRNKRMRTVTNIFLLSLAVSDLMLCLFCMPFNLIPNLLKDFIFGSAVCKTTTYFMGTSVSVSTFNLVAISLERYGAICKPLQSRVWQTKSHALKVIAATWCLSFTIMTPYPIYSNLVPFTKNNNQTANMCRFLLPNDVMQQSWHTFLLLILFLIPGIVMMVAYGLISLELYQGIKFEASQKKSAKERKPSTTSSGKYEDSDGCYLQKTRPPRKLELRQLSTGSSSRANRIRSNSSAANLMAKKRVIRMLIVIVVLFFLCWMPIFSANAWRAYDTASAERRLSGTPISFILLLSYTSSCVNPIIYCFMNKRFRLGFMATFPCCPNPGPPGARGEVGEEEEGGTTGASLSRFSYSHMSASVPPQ
Protocol: Human embryonic kidney cells (HEK293) were maintained at 37°C in a humidified 5% CO2 atmosphere and cultured with Dulbecco’s modified Eagle’s medium (Invitrogen, Chicago, IL) containing 10% fetal bovine serum, 100 U/mL penicillin, and 100 µg/mL streptomycin. Cells were seeded into 96-well plates and grown to ∼80% confluence. […]
The CCK2 receptor was cloned as previously reported [18]; the CCK1R cDNA was PCR amplified based on a published sequence [19]. […] The nucleotide sequences of all receptor and tethered ligand coding regions were confirmed by automated DNA sequencing and analyzed using Vector NTI software (Invitrogen, Chicago, IL). The expression of membrane tethered Substance P, CCK4, and CCK4-Gly was assessed by ELISA using an antibody directed to the myc epitope tag within the MTL cDNA construct [8].
(§5) Tethered ligand induced signaling was assessed in HEK293 cells 24 hours after transfection. […] With tethered ligands, antagonists were added 4 hours after transfection; activity was assessed following an additional 20 hour incubation. Quantification of luciferase and β-galactosidase activities were performed as previously described [6]. Data were analyzed by nonlinear curve fitting using Graph Pad Prism 5.0 software. […]

CCK2R [4] = target: T1, CCK2R; assay: Antagonist inhibition of agonist-induced CCK2R signaling (SRE-luciferase, HEK293); type: cell-based; parameters: expressed in transfected cells; host or cells: HEK293
Protocol: Figure 6 YM022 inhibits CCK2R signaling induced by tethered CCK4-Gly, soluble CCK4-Gly, or lipidated CCK4-Gly. A) YM022 blocks tethered CCK4-Gly mediated CCK2R signaling. […] Four hours following transfection, cells were with treated with increasing concentrations of YM022 for 20 hours. […] B) YM022 blocks s-CCK4-Gly-COOH and l-CCK4-Gly-COOH mediated activation of CCK2R. HEK293 cells were transfected as indicated above. Twenty hours after transfection, cells were with treated with increasing concentrations of YM022 together with either 10 µM of l-CCK4-Gly-COOH or s-CCK4-Gly-COOH.

NK2R = target: T4, NK2R (Homo sapiens, UniProt P21452); assay: SRE-luciferase reporter agonist assay in HEK293 cells transfected with NK2R; details: HEK293, SRE-Luc; relative to 1 µM s-SubP-NH2; MTL coexpressed 24 hours, peptides 4 hours
T4 sequence (P21452 1-398): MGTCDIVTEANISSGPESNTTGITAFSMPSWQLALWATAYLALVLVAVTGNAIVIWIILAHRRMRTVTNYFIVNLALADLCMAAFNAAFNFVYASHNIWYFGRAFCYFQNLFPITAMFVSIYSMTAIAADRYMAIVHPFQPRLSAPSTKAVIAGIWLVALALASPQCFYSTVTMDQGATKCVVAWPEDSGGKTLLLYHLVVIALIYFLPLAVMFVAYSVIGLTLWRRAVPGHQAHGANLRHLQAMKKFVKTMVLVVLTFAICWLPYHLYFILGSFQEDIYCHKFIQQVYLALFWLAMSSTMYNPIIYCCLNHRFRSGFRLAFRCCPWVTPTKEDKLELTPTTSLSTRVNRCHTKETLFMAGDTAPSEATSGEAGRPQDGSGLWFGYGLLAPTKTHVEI
Protocol: as §1, §3, §5

NK3R = target: T5, NK3R (Homo sapiens, UniProt P29371); assay: SRE-luciferase reporter agonist assay in HEK293 cells transfected with NK3R; details: HEK293, SRE-Luc; relative to 1 µM s-SubP-NH2; MTL coexpressed 24 hours, peptides 4 hours
T5 sequence (P29371 1-465): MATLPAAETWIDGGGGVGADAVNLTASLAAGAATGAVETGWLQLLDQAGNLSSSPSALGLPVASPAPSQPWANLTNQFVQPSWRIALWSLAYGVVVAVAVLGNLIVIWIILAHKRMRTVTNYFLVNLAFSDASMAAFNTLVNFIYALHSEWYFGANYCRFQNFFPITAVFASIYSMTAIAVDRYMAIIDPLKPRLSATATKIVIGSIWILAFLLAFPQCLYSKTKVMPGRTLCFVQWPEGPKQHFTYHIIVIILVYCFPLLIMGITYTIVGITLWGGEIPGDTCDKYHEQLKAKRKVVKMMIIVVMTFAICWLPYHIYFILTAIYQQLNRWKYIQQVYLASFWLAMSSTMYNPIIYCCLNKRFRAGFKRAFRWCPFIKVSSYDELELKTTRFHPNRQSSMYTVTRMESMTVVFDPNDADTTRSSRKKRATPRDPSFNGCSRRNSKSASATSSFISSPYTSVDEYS
Protocol: as §1, §3, §5

T2 sequence (P25103 whole entry): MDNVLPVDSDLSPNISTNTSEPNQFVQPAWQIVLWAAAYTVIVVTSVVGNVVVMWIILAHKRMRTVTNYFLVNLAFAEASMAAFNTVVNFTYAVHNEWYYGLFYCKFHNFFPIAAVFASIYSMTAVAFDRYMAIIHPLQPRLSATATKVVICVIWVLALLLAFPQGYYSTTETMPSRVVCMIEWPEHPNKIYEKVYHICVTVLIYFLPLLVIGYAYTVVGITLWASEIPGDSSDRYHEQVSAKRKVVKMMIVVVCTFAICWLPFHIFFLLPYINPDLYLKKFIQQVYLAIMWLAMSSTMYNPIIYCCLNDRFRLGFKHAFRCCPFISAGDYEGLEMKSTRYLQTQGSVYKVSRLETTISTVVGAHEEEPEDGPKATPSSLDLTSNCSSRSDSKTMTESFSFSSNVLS

EC50 (CCK2R [1]): 2.6 nM | CCK2R mediated signaling (agonist activity, in words) (CCK2R [1]): does not fully activate
Molecule: CCCCCCCCCCCCCCCC(=O)NCCOCCOCCOCCOCCOCCOCCOCCOCCC(=O)NCC(=O)NCC(=O)N[C@@H](Cc1c[nH]c2ccccc12)C(=O)N[C@@H](CCSC)C(=O)N[C@@H](CC(=O)O)C(=O)N[C@@H](Cc1ccccc1)C(N)=O [l-CCK4-NH2] ({Palmitoyl-PEG8}-GGWMDF-NH2)

NK2R mediated signaling (agonist activity, in words) (NK2R): no signaling was observed | NK3R mediated signaling (agonist activity, in words) (NK3R): activated | EC50 (NK1R [2]): 6.1 nM | NK1R mediated signaling (agonist activity, in words) (NK1R [3]; HEK293, SRE-Luc, relative to 1 µM s-SubP-NH2, MTL coexpressed 24 hours, peptides 4 hours): activated
Molecule: CCCCCCCCCCCCCCCC(=O)NCCOCCOCCOCCOCCOCCOCCOCCOCCC(=O)NCCCC[C@H](NC(C)=O)C(=O)NCC(=O)NCC(=O)N[C@@H](CCCNC(=N)N)C(=O)N1CCC[C@H]1C(=O)N[C@@H](CCCCN)C(=O)N1CCC[C@H]1C(=O)N[C@@H](CCC(N)=O)C(=O)N[C@@H](CCC(N)=O)C(=O)N[C@@H](Cc1ccccc1)C(=O)N[C@@H](Cc1ccccc1)C(=O)NCC(=O)N[C@@H](CC(C)C)C(=O)N[C@@H](CCSC)C(=O)O [l-SubP-COOH]

EC50 (CCK2R [1]): > 1000 nM
Molecule: WMDFG [s-CCK4-Gly-COOH]

The next lines start with the molecule.

Molecule: CCCCCCCCCCCCCCCC(=O)NCCOCCOCCOCCOCCOCCOCCOCCOCCC(=O)NCCCC[C@H](Nc1ccc([N+](=O)[O-])c2nonc12)C(=O)NCC(=O)NCC(=O)N[C@@H](CCCNC(=N)N)C(=O)N1CCC[C@H]1C(=O)N[C@@H](CCCCN)C(=O)N1CCC[C@H]1C(=O)N[C@@H](CCC(N)=O)C(=O)N[C@@H](CCC(N)=O)C(=O)N[C@@H](Cc1ccccc1)C(=O)N[C@@H](Cc1ccccc1)C(=O)NCC(=O)N[C@@H](CC(C)C)C(=O)N[C@@H](CCSC)C(N)=O [l-SubP-NH2]
EC50 (NK1R [2]): 0.4 nM | NK1R mediated signaling (agonist activity, in words) (NK1R [3]): fully active | Potency at NK1R compared with soluble counterpart (in words) (NK1R [3]): more potent than s-SubP-NH2

Molecule: CCCCCCCCCCCCCCCC(=O)NCCOCCOCCOCCOCCOCCOCCOCCOCCC(=O)NCC(=O)NCC(=O)N[C@@H](Cc1c[nH]c2ccccc12)C(=O)N[C@@H](CCSC)C(=O)N[C@@H](CC(=O)O)C(=O)N[C@@H](Cc1ccccc1)C(=O)NCC(=O)O [l-CCK4-Gly-COOH] ({Palmitoyl-PEG8}-GGWMDFG-OH)
CCK1R mediated signaling (agonist activity, in words) (CCK1R): lacked activity | EC50 (CCK2R [1]): > 1000 nM | CCK2R mediated signaling (agonist activity, in words) (CCK2R [1]): activated

Molecule: Cc1cccc(NC(=O)N[C@@H]2N=C(c3ccccc3)c3ccccc3N(CC(=O)c3ccccc3C)C2=O)c1 [YM022, (R)-1-[2,3-dihydro-1-(2′-methylphenacyl)-2-oxo-5-phenyl-1H-1,4-benzodiazepin-3-yl]-3-(3-methylphenyl)urea]
IC50 (CCK2R [4]; agonist 10 µM l-CCK4-Gly-COOH, 4 hours, read-out: IC50 for inhibition of l-CCK4-Gly-COOH induced CCK2R signaling): 10.2 nM | IC50 (CCK2R [4]; agonist 10 µM s-CCK4-Gly-COOH, 4 hours, read-out: IC50 for inhibition of s-CCK4-Gly-COOH induced CCK2R signaling): 0.84 nM | IC50 (CCK2R [4]; agonist tCCK4-Gly (coexpressed MTL), antagonist added 4 hours after transfection for 20 hours, read-out: IC50 for inhibition of tCCK4-Gly induced CCK2R signaling): 0.54 nM
